pKi: −log10 of the molar value. Several values for one entry are separate records, joined by “and”; a condition that tells them apart may be missing. Equal entries are not always repeated. Where a SMILES comes first, the peptide text is derived from it. Where no end group is shown, it is not given here. [ ]: non-standard residue; d: D form. dTrp(2-Me) = Cc1[nH]c2ccccc2c1C[C@@H](N)C(=O)O; d2Nal = N[C@H](Cc1ccc2ccccc2c1)C(=O)O

Data on four compounds can be found in patent publication US8536120B2 (The Administrators of The Tulane Educational Fund, priority 2006, dated 2013).

The target in test [1] is T1, Ghrelin/GHRP/GHS Receptor (Rattus norvegicus, UniProt O08725). Kind of test: In vitro pituitary incubation method: GH release from isolated pituitary glands, peptide alone or plus stimulator. The class given is cell-based. More on the design: from cell culture of pituitary cells; endogenous in cells; host or cells: dispersed primary rat anterior pituitary cells, 4 days in culture. The note with it: Table 12; Stimulator *S = Tyr-DTrp-Ala-Trp-Dphe-NH2 alone 0.3 μg/ml. On the procedure:
(§1) The peptides were synthesized by the solid phase method and purified by HPLC. GH was determined by Radioimmunoassay (RIA).
Hormonal activities were obtained from in vitro studies using pituitaries of 20 day old CD-1 strain Sprague Dawley female rats. Two pituitaries were incubated for a total of 4-6 hours. Medium was removed each hour for RIA of GH level and fresh medium was added again. After two one hour preincubation periods (P1-P2), the vehicle/peptides were added to two one hour incubations (I3-I4). Peptide activity was calculated as the change in the hormonal level (delta) between I3+I4 and P2. For antagonist activity, the incubation was continued for 2 additional hours (I5-I6) where both the peptide and a stimulator of GH secretion was added and the antagonist activity was calculated as the change in the hormonal level (delta) between I5+I6 and P2. The peptides were assayed in triplicate and the hormone was assayed in duplicate. Each value recorded represents the mean of 6. The GH RIA reagents were distributed by the NIH. Control data was collected from isolated pituitary glands treated with only the corresponding vehicle in the absence of peptide or stimulator. Control stimulated data was collected from isolated pituitary glands treated with stimulator alone in the absence of any peptide.

The target in test [2] is T2, ghrelin receptor (Rattus norvegicus, UniProt O08725).
T2 construct: from tissue; host or cells: whole animal (rat), i.c.v. or i.v. dosing
Kind of test: Spontaneous food intake in overnight-fasted rats after icv GHS-A. In kind it is in vivo. The note with it: 5 μg GHS-A icv; overnight-fasted animals; P<0.004 vs normal saline. As for the experimental part: (§2) Adult male Sprague Dawley rats (225-260 g) were purchased from Charles River Canada (St. Constant, Canada) and individually housed on a 12-h light, 12-h dark cycle (lights on, 0600-1800 h) in a temperature (22±1° C.)—and humidity-controlled room. Purina rat chow (Ralston Purina Co., St. Louis, Mo.) and tap water were available ad libitum.
Chronic intracerebroventricular (i.c.v.) and intracardiac venous cannulas were implanted under sodium pentobarbital (50 mg/kg, i.p.) anesthesia using previously described techniques in (2) and (11). […]
The effects of the GHS-A on both spontaneous and ghrelin-induced food intake and body weight gain were investigated. […] Food intake was monitored on an hourly basis for 5 h after the initial injection (until 1600 h) and subsequently overnight (1600-0900 h next morning). A measured amount of rat chow pellets was placed in the cage every hour. Spillage was collected by placement of a diaper under the rat cages, and total food consumed for each period was calculated by subtracting uneaten food plus spillage from total given. Body weights were recorded daily at 0900 h. The latency to the onset of the first meal after the injection and the duration of that meal were also monitored.

Test [3] concerns the target T2, ghrelin receptor. Put plainly: Spontaneous pulsatile GH secretion in free-moving rats after icv GHS-A. The note with it: 5 μg GHS-A icv; vs normal saline; P<0.01 or less. In kind it is in vivo. On the procedure: as §2
(§3) Chronic intracerebroventricular (i.c.v.) and intracardiac venous cannulas were implanted under sodium pentobarbital (50 mg/kg, i.p.) anesthesia using previously described techniques in (2) and (11). The placement of the icv cannulae was verified by both a positive drinking response to i.c.v. carbachol (100 ng/10 μl) injection on the day after surgery and methylene blue dye at the time of death. After surgery, the rats were placed directly in isolation test chambers with food and H2O freely available until body weight returned to preoperative levels (usually within 5-7 d). During this time the rats were handled daily to minimize any stress associated with handling on the day of the experiment. On the test day, food was removed 1.5 h before the start of sampling and was returned at the end.
These time points were chosen because they correspond closely to the time of onset of the spontaneous GH secretory episodes, as previously documented in our laboratory (2, 4). […]

Test [4] deals with T2, ghrelin receptor. Put plainly: Ghrelin-stimulated food intake in rats after icv GHS-A. In kind it is in vivo. The note with it: 500 ng ghrelin icv, vs normal saline. On the procedure: as §2, §3
Food intake was monitored on an hourly basis as described above. In this experiment, food was removed 1.5 h before the start of the test.

The target in test [5] is T2, ghrelin receptor. Kind of test: Ghrelin-induced GH release in free-moving adult male rats after GHS-A pretreatment (icv or iv). In kind it is in vivo. Conditions: vs normal saline; for Plasma GH response to ghrelin i.c.v.: 5 μg antagonist icv 15 min before 500 ng ghrelin icv. On the procedure:
as §2, §3
The efficacy of GHS-A to antagonize ghrelin's stimulatory action on GH at both central and peripheral sites was examined. […] (500 ng). Both the human ghrelin peptide (provided by Dr. K. Chang, Phoenix Pharmaceuticals, Inc., Belmont, Calif.) and the GHS-A were diluted in normal saline just before use. Blood samples (0.35 ml) were withdrawn every 15 min over a 6-h sampling period (1000-1600 h) from all animals. […] All blood samples were immediately centrifuged, and plasma was separated and stored at −20° C. for subsequent assay of GH. To avoid hemodynamic disturbance, the red blood cells were resuspended in normal saline and returned to the animal after removal of the next blood sample.
Blood samples were withdrawn from 1000-1600 h, as described above.

Test [6] addresses T3, human ghrelin receptor type 1a (GHS-R1a) (Homo sapiens, UniProt Q92847).
T3 construct: expressed in transfected cells; host or cells: HEK-293 cells (membranes)
Put plainly: Receptor binding: displacement of radiolabelled ghrelin on membranes of HEK-293 cells. The note with it: read-out: binding affinities (Ki).

Test [7] deals with T1, Ghrelin/GHRP/GHS Receptor. Put plainly: In vitro cell culture method: GH release from cell culture of pituitary cells, peptide alone or plus stimulator. In kind it is cell-based. Details: from cell culture of pituitary cells; endogenous in cells; host or cells: dispersed primary rat anterior pituitary cells, 4 days in culture. As for the experimental part: as §1
In vitro GH Release-Female rats of the CD-1 strain were housed in a constant temperature room at 24° C. with 14 h light and 10 h darkness. The rats were fed Purina Rat chow and water at libitum. All studies were started between 0800-1000 hours. Pituitaries of mature female Sprague Dawley rats were rapidly removed after decapitation, neurointermediate lobe discarded and then placed in a pH 7.4 buffer. The pituitaries were cut into ˜3-mm pieces and then transferred to a flask containing HEPS buffer with trypsin and incubated at 37° C. Cells were triturated several times during this period. After dispersion, the cells were collected by centrifugation, wash with DMEM and placed into culture well. Cell cultures were maintained for 4 days at 37° with 8% CO2 added to the incubator atmosphere. After 4 days in culture, cells were washed with lactated Ringer's solution adjusted to pH 7.2-7.4 and then vehicle, peptide alone or peptide plus stimulator was added to media. Incubation time was 60-120 minutes after which media was removed from each well for GH determination. The GH RIA reagents were distributed by the NIH. Control data was collected from cell cultures treated with only the corresponding vehicle in the absence of peptide or stimulator. Control stimulated data was collected from cell cultures treated with stimulator alone in the absence of any peptide.

In test [8] the target is T1, Ghrelin/GHRP/GHS Receptor. Kind of test: In vivo assay of GH release in rat, i.v. peptide alone or plus stimulator, serum GH by RIA. On the procedure: as §1
For the in vivo assay of GH Release in rat, immature female Sprague Dawley rats were obtained from Charles River from Wilmington, Mass. After arrival they were housed at 25° C. with a 14:10 h light:dark cycle. Water and Purina rat chow were available at libitum. Pups were weaned at 21 days of age.
Immature twenty six day old female Sprague Dawley rats, 3-6 rats per treatment dose, were pretreated with pentobarbital 20 minutes before iv injection of vehicle/peptide or peptide plus stimulator. Injection was made as a 0.1 ml solution. For the non-pentobarbital treated rat assay, peptides were administered iv into the tail vein of conscious rats. All animals were sacrificed by guillotine after iv peptide or vehicle. Trunk blood was collected at +10-15 minutes […], allowed to clot, centrifuged and serum stored until assayed for GH levels by RIA. The GH RIA reagents were distributed by the NIH. Control data was collected from rats treated with only the corresponding vehicle in the absence of peptide or stimulator. Control stimulated data was collected from rats treated with stimulator alone in the absence of any peptide.

T1 sequence (O08725 whole entry): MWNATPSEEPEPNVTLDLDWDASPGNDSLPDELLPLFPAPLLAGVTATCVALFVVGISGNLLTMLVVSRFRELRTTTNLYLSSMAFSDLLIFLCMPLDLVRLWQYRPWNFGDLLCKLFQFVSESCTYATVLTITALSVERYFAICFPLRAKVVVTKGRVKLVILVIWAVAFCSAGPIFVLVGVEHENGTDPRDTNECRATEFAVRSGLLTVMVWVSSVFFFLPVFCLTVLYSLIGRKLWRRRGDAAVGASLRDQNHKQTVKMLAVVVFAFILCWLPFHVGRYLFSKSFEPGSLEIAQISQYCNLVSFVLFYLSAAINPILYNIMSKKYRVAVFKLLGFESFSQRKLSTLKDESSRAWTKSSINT
T2 sequence (O08725 whole entry): as above
T3 sequence (Q92847 whole entry): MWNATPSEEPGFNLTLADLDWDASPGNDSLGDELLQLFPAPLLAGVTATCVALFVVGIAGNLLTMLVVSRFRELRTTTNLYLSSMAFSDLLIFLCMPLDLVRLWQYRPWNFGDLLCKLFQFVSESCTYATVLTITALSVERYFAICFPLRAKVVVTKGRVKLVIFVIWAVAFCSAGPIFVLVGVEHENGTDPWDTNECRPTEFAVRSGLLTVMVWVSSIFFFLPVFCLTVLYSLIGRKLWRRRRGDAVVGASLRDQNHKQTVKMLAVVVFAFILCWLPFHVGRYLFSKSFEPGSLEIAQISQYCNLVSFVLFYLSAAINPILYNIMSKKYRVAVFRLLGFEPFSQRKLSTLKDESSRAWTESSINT

Consider Tyr-DTrp-Ala-Trp-Dphe-NH2, for which the “Stimulated Control GH release” value in test [1] stood at 2218 ± 194 ng/mL.
On to H[d2Nal][dK]W[dF]K-NH2, for which, at ghrelin receptor [2], the “Spontaneous food intake in the first hour after injection” value is recorded as “significantly inhibited”. Further, the “1-h GH AUC's of spontaneous GH secretory episodes at 1100 h and 1400 h, and overall 6-h GH AUC” value on ghrelin receptor [3] is “significantly reduced”. In addition, on ghrelin receptor [4] (5 μg GHS-A icv), the “Cumulative food intake after ghrelin” value was “significantly suppressed for up to 5 h”. Further, the “Ghrelin-stimulated food intake in the first hour after injections” value at ghrelin receptor [4] (5 μg antagonist icv, P<0.02 or less) was “significantly inhibited”. For the same compound, the “Plasma GH response to ghrelin i.c.v.” value on ghrelin receptor [5] is reported as “virtually obliterated the GH response to ghrelin”; on ghrelin receptor [5] (listed as GHS-A), “abolished the stimulatory action of ghrelin on GH release”. Moreover, the “Plasma GH response to ghrelin i.v.” value on ghrelin receptor [5] (250 μg antagonist iv 15 min before 5 μg ghrelin iv, listed as GHS-A) is “strongly blocked ghrelin's ability to release GH”. In addition, the “Reduction of GH AUC following i.c.v. ghrelin” value on ghrelin receptor [5] (GHS-A icv pretreatment, 500 ng ghrelin icv, P<0.0003 or less) was 15 fold. In addition, the “Reduction of GH AUC following i.v. ghrelin” value on ghrelin receptor [5] (GHS-A iv pretreatment, 5 μg ghrelin iv, P<0.0003 or less) was 5 fold.
The term pKi denotes the negative decadic logarithm of the Ki, by convention in mol/L. As to `Cc1[nH]c2ccccc2c1C[C@@H](NC(=O)[C@@H](N)Cc1cnc[nH]1)C(=O)N[C@@H](C)C(=O)N[C@@H](Cc1c[nH]c2ccccc12)C(=O)N[C@H](Cc1ccccc1)C(=O)N[C@@H](CCCCN)C(N)=O` [hexarelin] (H-H[dTrp(2-Me)]AW[dF]K-NH2), the pKi in test [6] is 9.23.
For the compound “[dA][d2Nal]AW[dF]K-NH2 [reference compound]”, the “Stimulated Control GH release” value in test [7] (Table 6, stimulator DAla-DβNal-Ala-Trp-DPhe-Lys-NH2 alone 10 ng/ml) was 2420 ± 0 ng/mL and 2811 ± 229 ng/mL and 2385 ± 8 ng/mL; in test [7] (Table 9, stimulator DAla-DβNal-Ala-Trp-DPhe-Lys-NH2 alone 1 ng/ml), 1232 ± 34 ng/mL; in test [7] (Table 10, stimulator DAla-DβNal-Ala-Trp-DPhe-Lys-NH2 alone 1 ng/ml), 905 ± 6 ng/mL and 1153 ± 36 ng/mL and 1216 ± 26 ng/mL and 1461 ± 58 ng/mL and 1016 ± 18 ng/mL and 859 ± 4 ng/mL and 1060 ± 24 ng/mL; in test [7] (Table 11, stimulator DAla-DβNal-Ala-Trp-DPhe-Lys-NH2 alone 1 ng/ml), 905 ± 6 ng/mL and 947 ± 11 ng/mL and 947 ± 33 ng/mL and 1016 ± 18 ng/mL. For the same compound, the “Stimulated Control GH” value is 2253 ± 252 ng/mL and 1412 ± 400 ng/mL in test [8] (Table 2, stimulator DAla-DβNal-Ala-Trp-DPhe-Lys-NH2 alone 0.3 μg, rat); 3214 ± 276 ng/mL and 3105 ± 429 ng/mL and 2406 ± 288 ng/mL and 2825 ± 134 ng/mL and 3104 ± 429 ng/mL in test [8] (Table 2, stimulator DAla-DβNal-Ala-Trp-DPhe-Lys-NH2 alone 1 μg, rat); 72 ± 9 ng/mL in test [8] (Table 4, Non-Pentobarbital Rats, stimulator DAla-DβNal-Ala-Trp-DPhe-Lys-NH2 alone 10 μg); 4950 ± 98 ng/mL in test [8] (Table 4, Pentobarbital Rats, stimulator DAla-DβNal-Ala-Trp-DPhe-Lys-NH2 alone 1 μg).
